According to patent US10271540B2, “Medical fluid, a method of treatment and use of the fluid” (XVIVO PERFUSION AB, priority 2010, dated 2019):

Experiments:
[1] = circulating in blood, metabolized by the liver; cited from earlier work
alpha-1 = test: potency of alpha-1-agonist relative to noradrenaline
From the text: For example, phenylephrine is an alpha-1-agonist and may replace noradrenaline.

Row | Compound | half-life [1] | times less potent than noradrenaline (alpha-1)
1 | CNCC(O)c1ccc(O)c(O)c1 (stereo not drawn) [adrenaline] | approximately a few minutes | –
2 | NC[C@H](O)c1ccc(O)c(O)c1 [noradrenaline] | approximately a few minutes | –
3 | CNC[C@H](O)c1cccc(O)c1 [phenylephrine] | – | about 5 times
